# According to PMC11364775, “Ion occupancy of the selectivity filter controls opening of a cytoplasmic gate in the K2P channel TALK-2” (Nature Communications, 2024):
# Entries after “also recorded” stand apart in the source; their conditions may differ.
# Experiments:
# WT TALK-2 channels [1] = target: T1, WT TALK-2 channels (Homo sapiens, UniProt Q96T54); assay: Conductance-voltage (G-V) curves from tail currents, V1/2 (intracellular Rb+); assay type: cell-based; parameters: expressed in transfected cells; host or cells: Xenopus laevis oocytes (cRNA injection), excised inside-out patches; details: for Normalized current: TALK-2 WT + 1 mM TPenA
# T1 sequence (Q96T54 1-332): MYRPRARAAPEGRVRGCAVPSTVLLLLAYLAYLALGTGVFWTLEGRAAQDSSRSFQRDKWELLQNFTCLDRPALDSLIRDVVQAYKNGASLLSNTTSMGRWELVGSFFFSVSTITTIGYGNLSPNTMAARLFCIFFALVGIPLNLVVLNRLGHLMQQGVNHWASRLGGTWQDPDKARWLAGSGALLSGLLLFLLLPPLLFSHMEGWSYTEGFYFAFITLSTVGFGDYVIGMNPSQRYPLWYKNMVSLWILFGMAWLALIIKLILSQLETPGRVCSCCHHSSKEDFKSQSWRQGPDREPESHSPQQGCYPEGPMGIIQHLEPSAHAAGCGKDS
# Excerpt: The voltage-dependent activation mechanism of the SF gate in K2P channels allows to estimate the electrical work (ΔG = zFΔV1/2) required for pore opening by fitting the G–V curve to a Boltzmann equation. […] The open state represents the situation of both gates being simultaneously open but voltage can only exert force on the SF gate that functions as voltage sensor. […] We further tested whether mutations that open the lower gate (L262A and L264A) would affect the extracellular pH sensitivity. […] We further explored this concept of allosteric coupling using the mutations identified in the functional alanine screen of TM2 and TM4. […]
# Conductance-voltage (G–V) relationships were determined from tail currents recorded at a holding potential (VH) of −80 mV after 300 ms depolarizing steps as indicated in the respective figure legend. Data were analyzed with a single Boltzmann fit following Eq. 6:6 GV=Imax/1+e^V−V1/2/slope+Ibase where V1/2 represents the voltage of half-maximal activation, s is the slope factor and Imax and Ibase represent the upper and lower asymptotes. Under appropriate experimental conditions, you can use slope to calculate the valence (charge) of the ion moving across the channel. Slope equals R * T/ z * F where R is the universal gas constant, T is temperature in K, F is the Faraday constant, and z is the valence.
# WT TALK-2 channels [2] = target: T1, WT TALK-2 channels; assay: Tail current deactivation kinetics with pore blocker (inside-out patch); assay type: cell-based; parameters: expressed in transfected cells; host or cells: Xenopus laevis oocytes (cRNA injection), excised inside-out patches
# Excerpt: In voltage-gated K^+ (Kv) channels, the closing of the lower gate can be prevented by the binding of blockers such as tetra-pentyl-ammonium (TPenA) in the pore cavity and, thereby, causing a slowing of the deactivation kinetics which is known as the ‘foot in the door’ effect[33],[34]. To test for such a mechanism in TALK-2, we activated the channels with a voltage step to +100 mV in the presence of intracellular Rb^+ followed by a repolarization step to -80 mV (to induce tail currents) with and without the K2P channel pore blocker TPenA. […] We hypothesize, that the two gates are strongly coupled and, therefore, opening the SF gate by depolarization should also open the lower gate, which then consequently would allow blocker (like TPenA) binding within the pore cavity (Fig. 5a cartoon). Upon repolarization, however, the bound TPenA blocker obstructs closure of the lower gate and thereby, hinders the SF from closure/inactivation (gate coupling).
compound,measurement,setting,value
"CCCCC[N+](CCCCC)(CCCCC)CCCCC [TPenA, Tetra-pentyl-ammonium chloride]",leftward shift of the G-V curve,"WT TALK-2 channels [1]; 1 mM TPenA, intracellular Rb+",46.1 ± 4.9 mV
same,Normalized current,WT TALK-2 channels [1]; Voltage 0.000,0.197
same,Normalized current,WT TALK-2 channels [1]; Voltage 0.005,0.242
same,Normalized current,WT TALK-2 channels [1]; Voltage 0.010,0.308
same,Normalized current,WT TALK-2 channels [1]; Voltage 0.015,0.381
same,Normalized current,WT TALK-2 channels [1]; Voltage 0.020,0.454
same,Normalized current,WT TALK-2 channels [1]; Voltage 0.025,0.532
same,Normalized current,WT TALK-2 channels [1]; Voltage 0.030,0.607
same,Normalized current,WT TALK-2 channels [1]; Voltage 0.035,0.671
same,Normalized current,WT TALK-2 channels [1]; Voltage 0.040,0.728
same,Normalized current,WT TALK-2 channels [1]; Voltage 0.045,0.768
same,Normalized current,WT TALK-2 channels [1]; Voltage 0.050,0.808
same,Normalized current,WT TALK-2 channels [1]; Voltage 0.055,0.838
same,Normalized current,WT TALK-2 channels [1]; Voltage 0.060,0.865
same,Normalized current,WT TALK-2 channels [1]; Voltage 0.065,0.890
same,Normalized current,WT TALK-2 channels [1]; Voltage 0.070,0.906
same,Normalized current,WT TALK-2 channels [1]; Voltage 0.075,0.928
same,Normalized current,WT TALK-2 channels [1]; Voltage 0.080,0.937
same,Normalized current,WT TALK-2 channels [1]; Voltage 0.085,0.948
same,Normalized current,WT TALK-2 channels [1]; Voltage 0.090,0.958
same,Normalized current,WT TALK-2 channels [1]; Voltage 0.095,0.967
same,Normalized current,WT TALK-2 channels [1]; Voltage 0.100,0.967
same,Normalized current,WT TALK-2 channels [1]; Voltage 0.105,0.966
same,Normalized current,WT TALK-2 channels [1]; Voltage 0.110,0.976
same,Normalized current,WT TALK-2 channels [1]; Voltage 0.115,0.977
same,Normalized current,WT TALK-2 channels [1]; Voltage 0.120,0.974
same,Normalized current,WT TALK-2 channels [1]; Voltage 0.125,0.985
same,Normalized current,WT TALK-2 channels [1]; Voltage 0.130,0.971
same,Normalized current,WT TALK-2 channels [1]; Voltage 0.135,0.973
same,Normalized current,WT TALK-2 channels [1]; Voltage 0.140,0.960
same,Normalized current,WT TALK-2 channels [1]; Voltage 0.145,0.967
same,Normalized current,WT TALK-2 channels [1]; Voltage 0.150,0.968
same,Normalized current,WT TALK-2 channels [1]; Voltage 0.155,0.943
same,Normalized current,WT TALK-2 channels [1]; Voltage 0.160,0.968
same,Normalized current,WT TALK-2 channels [1]; Voltage -0.005,0.160
same,Normalized current,WT TALK-2 channels [1]; Voltage -0.010,0.136
same,Normalized current,WT TALK-2 channels [1]; Voltage -0.015,0.121
same,Normalized current,WT TALK-2 channels [1]; Voltage -0.020,0.109
same,Normalized current,WT TALK-2 channels [1]; Voltage -0.025,0.102
same,Normalized current,WT TALK-2 channels [1]; Voltage -0.030,0.098
same,Normalized current,WT TALK-2 channels [1]; Voltage -0.035,0.094
same,Normalized current,WT TALK-2 channels [1]; Voltage -0.040,0.089
same,Normalized current,WT TALK-2 channels [1]; Voltage -0.045,0.087
same,Normalized current,WT TALK-2 channels [1]; Voltage -0.050,0.085
same,Normalized current,WT TALK-2 channels [1]; Voltage -0.055,0.083
same,Normalized current,WT TALK-2 channels [1]; Voltage -0.060,0.079
same,Normalized current,WT TALK-2 channels [1]; Voltage -0.065,0.079
same,Normalized current,WT TALK-2 channels [1]; Voltage -0.070,0.079
same,Normalized current,WT TALK-2 channels [1]; Voltage -0.075,0.077
same,Normalized current,WT TALK-2 channels [1]; Voltage -0.080,0.077
same,Normalized current,WT TALK-2 channels [1]; Voltage -0.085,0.078
same,Normalized current,WT TALK-2 channels [1]; Voltage -0.090,0.077
same,Normalized current,WT TALK-2 channels [1]; Voltage -0.095,0.078
same,Normalized current,WT TALK-2 channels [1]; Voltage -0.100,0.076
same,Normalized current,WT TALK-2 channels [1]; Voltage -0.105,0.077
same,Normalized current,WT TALK-2 channels [1]; Voltage -0.110,0.079
same,Normalized current,WT TALK-2 channels [1]; Voltage -0.115,0.077
same,Normalized current,WT TALK-2 channels [1]; Voltage -0.120,0.077
same,V1/2,"WT TALK-2 channels [1]; TALK-2 WT, 1 mM ligand",25.5 mV
same,effect of TPenA inhibition on tail current kinetics,"WT TALK-2 channels [2]; 2-APB-activated TALK-2 (1.0 mM 2-APB, 1.0 mM TPenA)",no effect; also recorded: little effect
same,deactivation time constant τ of tail currents,"WT TALK-2 channels [2]; intracellular Rb+ with 1.0 mM TPenA, step to +100 mV, repolarization to -80 mV",7.4 ± 0.4 ms
same,TPenA block of the tail current amplitudes,"WT TALK-2 channels [2]; intracellular Rb+, tail currents at -80 mV",~ 50%
same,slowing of the deactivation kinetics,"WT TALK-2 channels [2]; with ~50 % TPenA block, intracellular Rb+",~ 2.5 fold
